Results taken from article PMC9090415, “Discovery of small molecule inhibitors of Plasmodium falciparum apicoplast DNA polymerase” (Journal of Enzyme Inhibition and Medicinal Chemistry, 2022).

Biological target: P. falciparum apicoplast DNA polymerase (Pf-apPOL) (Plasmodium falciparum, UniProt Q8ILY1)
Experiment: Fluorescence-based high-throughput DNA polymerase assay (molecular beacon), primary screen and dose-response;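 for % inhibition ApPOL 90': test concentration in µM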;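 for % inhibition apPOL 180': test concentration in µM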
Assay type: biochemical
Procedure, shortened: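 Single-point screening used 10 µM compound with 20 nM polymerase, 20 nM hairpin substrate and 6 µM dNTPs for 90 min at 25 °C. Confirmatory titrations (2.5–80 µM) followed fluorescence at three times, and IC50 was derived from a fit including a cooperativity term n.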

[1] = DRC-2, 40', concentration 2.5 (unit not given)
[2] = DRC-2, 40', concentration 20 (unit not given)
[3] = DRC-2, 40', concentration 80 (unit not given)
[4] = DRC-2, 90', concentration 80 (unit not given)
[5] = primary screen value of the 186 hits; unit not given; 90 min, 10 µM

Chain of P. falciparum apicoplast DNA polymerase (Pf-apPOL) (Q8ILY1 entry or part of it): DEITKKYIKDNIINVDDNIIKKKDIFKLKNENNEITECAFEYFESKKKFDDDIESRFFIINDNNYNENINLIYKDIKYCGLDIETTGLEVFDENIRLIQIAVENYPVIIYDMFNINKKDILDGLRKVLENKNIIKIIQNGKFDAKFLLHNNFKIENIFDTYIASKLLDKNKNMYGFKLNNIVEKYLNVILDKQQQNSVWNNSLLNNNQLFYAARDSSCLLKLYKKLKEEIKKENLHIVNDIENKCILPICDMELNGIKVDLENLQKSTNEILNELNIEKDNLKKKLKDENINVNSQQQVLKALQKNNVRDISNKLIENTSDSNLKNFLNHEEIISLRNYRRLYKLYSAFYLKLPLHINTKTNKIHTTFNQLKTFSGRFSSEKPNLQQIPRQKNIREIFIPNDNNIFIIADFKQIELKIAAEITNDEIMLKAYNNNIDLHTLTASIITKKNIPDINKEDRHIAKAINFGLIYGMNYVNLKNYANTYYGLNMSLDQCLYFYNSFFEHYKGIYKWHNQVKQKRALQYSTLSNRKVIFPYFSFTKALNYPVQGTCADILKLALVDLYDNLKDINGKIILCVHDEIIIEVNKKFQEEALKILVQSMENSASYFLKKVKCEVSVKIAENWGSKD

O=c1cc(CN2CCCCC2)c2cc3c(cc2o1)OCO3 [Molecule 56, O=c1cc(CN2CCCCC2)c2c(o1)cc1c(c2)OCO1]
DNA Pol ('DNA Pol' of the 186 hits list (primary screen result); unit not given; 90 min, 10 µM): 34 | % inhibition Apo pol 10' (DRC-1; 10'; concentration 2.5): -1.492% | % inhibition Apo pol 10' (DRC-1; 10'; concentration 5): 3.303% | % inhibition Apo pol 10' (DRC-1; 10'; concentration 10): 19.9772% | % inhibition Apo pol 10' (DRC-1; 10'; concentration 20): 32.3483% | % inhibition Apo pol 10' (DRC-1; 10'; concentration 40): 45.3079% | % inhibition Apo pol 10' (DRC-1; 10'; concentration 80): 89.8826% | % inhibition Apol 90' (DRC-1; 90'; concentration 2.5): 2.551% | % inhibition Apol 90' (DRC-1; 90'; concentration 5): 7.455% | % inhibition Apol 90' (DRC-1; 90'; concentration 10): 24.7772% | % inhibition Apol 90' (DRC-1; 90'; concentration 20): 41.1965% | % inhibition Apol 90' (DRC-1; 90'; concentration 40): 58.3854% | % inhibition Apol 90' (DRC-1; 90'; concentration 80): 90.5438% | % inhibition apPOL 180' (DRC-1; 180'; concentration 2.5): 3.723% | % inhibition apPOL 180' (DRC-1; 180'; concentration 5): 9.055% | % inhibition apPOL 180' (DRC-1; 180'; concentration 10): 32.8614% | % inhibition apPOL 180' (DRC-1; 180'; concentration 20): 57.3951% | % inhibition apPOL 180' (DRC-1; 180'; concentration 40): 81.7381% | % inhibition apPOL 180' (DRC-1; 180'; concentration 80): 95.8992% | % inhibition Apo pol 5' (DRC-2, 5', concentration 10 (unit not given)): 21% | % inhibition Apol 40' [1]: 8% | % inhibition Apol 40' (DRC-2, 40', concentration 5 (unit not given)): 4% | % inhibition Apol 40' [2]: 39% | % inhibition Apol 40' [3]: 68% | % inhibition ApPOL 90' (DRC-2, 90', concentration 20 (unit not given)): 39% | % inhibition ApPOL 90' [4]: 68% | % inhibition apPOL 180' (DRC-2, 180', concentration 10 (unit not given)): 21% | % inhibition Apo pol 5' (DRC-2; 5'; concentration 2.5): 5.61% | % inhibition Apo pol 5' (DRC-2; 5'; concentration 5): 6% | % inhibition Apo pol 5' (DRC-2; 5'; concentration 10): 21% | % inhibition Apo pol 5' (DRC-2; 5'; concentration 20): 35% | % inhibition Apo pol 5' (DRC-2; 5'; concentration 40): 50% | % inhibition Apo pol 5' (DRC-2; 5'; concentration 80): 60% | % inhibition Apol 40' (DRC-2; 40'; concentration 2.5): 8% | % inhibition Apol 40' (DRC-2; 40'; concentration 5): 4% | % inhibition Apol 40' (DRC-2; 40'; concentration 10): 26% | % inhibition Apol 40' (DRC-2; 40'; concentration 20): 39% | % inhibition Apol 40' (DRC-2; 40'; concentration 40): 54% | % inhibition Apol 40' (DRC-2; 40'; concentration 80): 68% | % inhibition ApPOL 90' (DRC-2; 90'; concentration 2.5): 8% | % inhibition ApPOL 90' (DRC-2; 90'; concentration 2.5 (unit not given)): 8% | % inhibition ApPOL 90' (DRC-2; 90'; concentration 5): -0.711% | % inhibition ApPOL 90' (DRC-2; 90'; concentration 10): 27% | % inhibition ApPOL 90' (DRC-2; 90'; concentration 20): 39% | % inhibition ApPOL 90' (DRC-2; 90'; concentration 40): 53% | % inhibition ApPOL 90' (DRC-2; 90'; concentration 80): 68% | % inhibition apPOL 180' (DRC-2; 180'; concentration 2.5): 4% | % inhibition apPOL 180' (DRC-2; 180'; concentration 2.5 (unit not given)): 4% | % inhibition apPOL 180' (DRC-2; 180'; concentration 5): -66% | % inhibition apPOL 180' (DRC-2; 180'; concentration 10): 21% | % inhibition apPOL 180' (DRC-2; 180'; concentration 20): 32% | % inhibition apPOL 180' (DRC-2; 180'; concentration 40): 45% | % inhibition apPOL 180' (DRC-2; 180'; concentration 80): 64% | DNA Pol (primary screen value of the library well; unit not given; 90 min, 10 µM): 34

O=C(O)c1ccc(-c2nc3cc(-c4ccc5nc(-c6ccc(C(=O)O)cc6)[nH]c5c4)ccc3[nH]2)cc1 [Molecule 1, OC(=O)c1ccc(cc1)c1nc2c([nH]1)cc(cc2)c1ccc2c(c1)nc([nH]2)c1ccc(cc1)C(=O)O]
% inhibition Apo pol 10' (DRC-1; 10'; concentration 2.5): 4.605% | % inhibition Apo pol 10' (DRC-1; 10'; concentration 5): 47.5072% | % inhibition Apo pol 10' (DRC-1; 10'; concentration 10): 71.1755% | % inhibition Apo pol 10' (DRC-1; 10'; concentration 20): 72.8856% | % inhibition Apo pol 10' (DRC-1; 10'; concentration 40): 63.5867% | % inhibition Apo pol 10' (DRC-1; 10'; concentration 80): 67.7005% | % inhibition Apol 90' (DRC-1; 90'; concentration 2.5): 3.724% | % inhibition Apol 90' (DRC-1; 90'; concentration 5): 40.2973% | % inhibition Apol 90' (DRC-1; 90'; concentration 10): 67.3465% | % inhibition Apol 90' (DRC-1; 90'; concentration 20): 73.5196% | % inhibition Apol 90' (DRC-1; 90'; concentration 40): 66.9827% | % inhibition Apol 90' (DRC-1; 90'; concentration 80): 77.5146% | % inhibition apPOL 180' (DRC-1; 180'; concentration 2.5): 2.544% | % inhibition apPOL 180' (DRC-1; 180'; concentration 5): 30.2265% | % inhibition apPOL 180' (DRC-1; 180'; concentration 10): 61.3297% | % inhibition apPOL 180' (DRC-1; 180'; concentration 20): 73.7422% | % inhibition apPOL 180' (DRC-1; 180'; concentration 40): 70.4852% | % inhibition apPOL 180' (DRC-1; 180'; concentration 80): 81.7521% | % inhibition Apo pol 5' (DRC-2, 5', concentration 2.5 (unit not given)): 30% | % inhibition Apo pol 5' (DRC-2, 5', concentration 20 (unit not given)): 37% | % inhibition Apo pol 5' (DRC-2, 5', concentration 40 (unit not given)): 37% | % inhibition Apol 40' [1]: 30% | % inhibition Apol 40' (DRC-2, 40', concentration 10 (unit not given)): 32% | % inhibition Apol 40' [2]: 41% | % inhibition Apol 40' [3]: 32% | % inhibition ApPOL 90' [4]: 41% | % inhibition apPOL 180' (DRC-2, 180', concentration 20 (unit not given)): 37% | % inhibition Apo pol 5' (DRC-2; 5'; concentration 2.5): 30% | % inhibition Apo pol 5' (DRC-2; 5'; concentration 5): 7% | % inhibition Apo pol 5' (DRC-2; 5'; concentration 10): 33% | % inhibition Apo pol 5' (DRC-2; 5'; concentration 20): 37% | % inhibition Apo pol 5' (DRC-2; 5'; concentration 40): 37% | % inhibition Apo pol 5' (DRC-2; 5'; concentration 80): 22% | % inhibition Apol 40' (DRC-2; 40'; concentration 2.5): 30% | % inhibition Apol 40' (DRC-2; 40'; concentration 5): 4% | % inhibition Apol 40' (DRC-2; 40'; concentration 10): 32% | % inhibition Apol 40' (DRC-2; 40'; concentration 20): 41% | % inhibition Apol 40' (DRC-2; 40'; concentration 40): 48% | % inhibition Apol 40' (DRC-2; 40'; concentration 80): 32% | % inhibition ApPOL 90' (DRC-2; 90'; concentration 2.5): 25% | % inhibition ApPOL 90' (DRC-2; 90'; concentration 5): 1.89% | % inhibition ApPOL 90' (DRC-2; 90'; concentration 10): 28% | % inhibition ApPOL 90' (DRC-2; 90'; concentration 20): 40% | % inhibition ApPOL 90' (DRC-2; 90'; concentration 40): 53% | % inhibition ApPOL 90' (DRC-2; 90'; concentration 80): 41% | % inhibition apPOL 180' (DRC-2; 180'; concentration 2.5): 14% | % inhibition apPOL 180' (DRC-2; 180'; concentration 5): -1.88% | % inhibition apPOL 180' (DRC-2; 180'; concentration 10): 20% | % inhibition apPOL 180' (DRC-2; 180'; concentration 20): 37% | % inhibition apPOL 180' (DRC-2; 180'; concentration 40): 56% | % inhibition apPOL 180' (DRC-2; 180'; concentration 80): 49% | DNA Pol [5]: 68 | DNA Pol (primary screen value, head "DNA Pol", unit not given; 90 min, 10 µM): 68

O=C1NN(c2ccc(Cl)c(Cl)c2)C(=O)/C1=C/c1ccc(-c2ccc3c(c2)C(=O)OC3)o1 [Molecule 90]
IC50 (supplemental file 2, sheet IC50 nontoxic compounds; Pf-apPOL): 3.43 µM

Cc1ccnc(NS(=O)(=O)c2ccc(-n3cccc3)cc2)n1 [KU0034899]
% inhibition Apo pol 10' (DRC-1; concentration 2.5; 10'): 6.567% | % inhibition Apol 90' (DRC-1; concentration 2.5; 90'): 1.285% | % inhibition apPOL 180' (DRC-1; concentration 2.5; 180'): -4.513% | % inhibition Apo pol 10' (DRC-1; concentration 5; 10'): 25.8281% | % inhibition Apol 90' (DRC-1; concentration 5; 90'): 11.3898% | % inhibition apPOL 180' (DRC-1; concentration 5; 180'): 1.685% | % inhibition Apo pol 10' (DRC-1; concentration 10; 10'): 43.5691% | % inhibition Apol 90' (DRC-1; concentration 10; 90'): 23.2373% | % inhibition apPOL 180' (DRC-1; concentration 10; 180'): 9.9045% | % inhibition Apo pol 10' (DRC-1; concentration 20; 10'): 72.9985% | % inhibition Apol 90' (DRC-1; concentration 20; 90'): 50.5873% | % inhibition apPOL 180' (DRC-1; concentration 20; 180'): 29.9217% | % inhibition Apo pol 10' (DRC-1; concentration 40; 10'): 90.805% | % inhibition Apol 90' (DRC-1; concentration 40; 90'): 80.4805% | % inhibition apPOL 180' (DRC-1; concentration 40; 180'): 67.6388% | % inhibition Apo pol 10' (DRC-1; concentration 80 (unit not given); 10'): 93.2113% | % inhibition Apol 90' (DRC-1; concentration 80; 90'): 92.1996% | % inhibition apPOL 180' (DRC-1; concentration 80; 180'): 89.3134% | % inhibition Apol 40' (DRC-2; 40'; concentration 80): 59% | % inhibition ApPOL 90' (DRC-2; 90'; concentration 20): 59% | % inhibition Apo pol 5' (DRC-2; concentration 2.5; 5'): 26% | % inhibition Apol 40' (DRC-2; concentration 2.5; 40'): 31% | % inhibition ApPOL 90' (DRC-2; concentration 2.5; 90'): 29% | % inhibition apPOL 180' (DRC-2; concentration 2.5; 180'): 19% | % inhibition Apo pol 5' (DRC-2; concentration 5; 5'): 23% | % inhibition Apol 40' (DRC-2; concentration 5; 40'): 20% | % inhibition ApPOL 90' (DRC-2; concentration 5; 90'): 14% | % inhibition apPOL 180' (DRC-2; concentration 5; 180'): 0.78% | % inhibition Apo pol 5' (DRC-2; concentration 10; 5'): 41% | % inhibition Apol 40' (DRC-2; concentration 10; 40'): 42% | % inhibition ApPOL 90' (DRC-2; concentration 10; 90'): 37% | % inhibition apPOL 180' (DRC-2; concentration 10; 180'): 21% | % inhibition Apo pol 5' (DRC-2; concentration 20; 5'): 49% | % inhibition Apol 40' (DRC-2; concentration 20; 40'): 62% | % inhibition ApPOL 90' (DRC-2; concentration 20; 90'): 59% | % inhibition apPOL 180' (DRC-2; concentration 20; 180'): 48% | % inhibition Apo pol 5' (DRC-2; concentration 40; 5'): 52% | % inhibition Apol 40' (DRC-2; concentration 40; 40'): 73% | % inhibition ApPOL 90' (DRC-2; concentration 40; 90'): 75% | % inhibition apPOL 180' (DRC-2; concentration 40; 180'): 74% | % inhibition Apo pol 5' (DRC-2; concentration 80; 5'): 17% | % inhibition Apol 40' (DRC-2; concentration 80; 40'): 59% | % inhibition ApPOL 90' (DRC-2; concentration 80; 90'): 67% | % inhibition apPOL 180' (DRC-2; concentration 80; 180'): 76% | DNA Pol [5]: 40 | DNA Pol (primary screen value; head prints only 'DNA Pol'; 90 min, 10 µM): 40
